This note sets out measurements from patent US9096518B2, “Substituted hydroxamic acids and uses thereof” (Millennium Pharmaceuticals, Inc., priority 2009, dated 2015).

A value given as a limit tells only on which side of the number the result lay.

What is called IC50 is the point on the concentration scale where inhibition reaches its midpoint.

For the test, the target named is T1, purified human HDAC6 (Homo sapiens, UniProt Q9UBN7).
T1 construct: purchased BPS Bioscience 5006
T1 sequence (Q9UBN7 1-1215): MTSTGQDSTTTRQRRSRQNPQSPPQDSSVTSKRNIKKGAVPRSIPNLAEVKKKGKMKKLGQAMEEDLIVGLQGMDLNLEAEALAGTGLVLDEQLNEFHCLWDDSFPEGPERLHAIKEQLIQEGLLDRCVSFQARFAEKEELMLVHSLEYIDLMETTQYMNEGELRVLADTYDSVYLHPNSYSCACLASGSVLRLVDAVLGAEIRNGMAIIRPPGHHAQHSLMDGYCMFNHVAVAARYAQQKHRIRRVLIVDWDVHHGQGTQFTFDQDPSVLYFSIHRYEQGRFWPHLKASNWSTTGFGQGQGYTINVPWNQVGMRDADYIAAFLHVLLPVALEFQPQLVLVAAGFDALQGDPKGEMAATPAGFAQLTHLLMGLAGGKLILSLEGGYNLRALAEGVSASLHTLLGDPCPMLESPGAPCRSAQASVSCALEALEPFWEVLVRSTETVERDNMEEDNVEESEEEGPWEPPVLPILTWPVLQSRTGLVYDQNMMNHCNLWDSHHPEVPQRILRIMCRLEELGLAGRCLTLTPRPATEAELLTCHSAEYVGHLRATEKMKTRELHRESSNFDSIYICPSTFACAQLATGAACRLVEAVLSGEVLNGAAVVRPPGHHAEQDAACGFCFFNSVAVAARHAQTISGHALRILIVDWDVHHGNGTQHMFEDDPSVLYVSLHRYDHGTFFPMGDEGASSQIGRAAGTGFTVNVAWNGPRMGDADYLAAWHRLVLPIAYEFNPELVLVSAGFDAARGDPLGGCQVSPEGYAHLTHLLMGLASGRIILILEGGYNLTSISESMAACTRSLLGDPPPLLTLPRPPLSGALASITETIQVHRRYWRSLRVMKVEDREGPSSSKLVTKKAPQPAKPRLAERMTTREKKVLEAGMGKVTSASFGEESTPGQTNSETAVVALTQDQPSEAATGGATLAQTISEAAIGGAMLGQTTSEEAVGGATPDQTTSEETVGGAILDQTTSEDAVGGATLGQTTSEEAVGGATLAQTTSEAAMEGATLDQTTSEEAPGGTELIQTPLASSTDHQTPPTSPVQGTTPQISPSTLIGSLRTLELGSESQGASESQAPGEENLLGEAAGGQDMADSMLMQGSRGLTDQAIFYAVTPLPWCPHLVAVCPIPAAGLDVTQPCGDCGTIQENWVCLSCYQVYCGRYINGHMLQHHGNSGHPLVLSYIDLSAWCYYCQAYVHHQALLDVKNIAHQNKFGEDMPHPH
Description: HDAC6 Enzyme Assay. In kind it is biochemical. Put shortly: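 Purified human HDAC6 incubated 1 h at 30 °C with Ac-Arg-Gly-Lys(Ac)-AMC peptide and compound; reaction stopped with trichostatin A, then trypsin releases AMC, read by fluorescence (Ex 340/Em 460 nm). IC50 from concentration-response curves relative to DMSO controls.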
For the molecule `O=C(NO)c1ccc2c(c1)CCCN(C(=O)C13CC4CC(CC(C4)C1)C3)C2` [Compound 232, 2-(1-adamantylcarbonyl)-N-hydroxy-2,3,4,5-tetrahydro-1H-2-benzazepine-7-carboxamide], the IC50 was 100 to 500 nM.
The value for `Cn1ccc(C(=O)N2CCCc3cc(C(=O)NO)ccc3C2)n1` [Compound 233, N-hydroxy-2-[(1-methyl-1H-pyrazol-3-yl)carbonyl]-2,3,4,5-tetrahydro-1H-2-benzazepine-7-carboxamide] was above 500 nM; that for `O=C(NO)c1ccc2c(c1)CCCN(C(=O)c1cccc3ccccc13)C2` [Compound 234, N-hydroxy-2-(1-naphthoyl)-2,3,4,5-tetrahydro-1H-2-benzazepine-7-carboxamide] was 100 to 500 nM.
`COc1ccc(C(=O)N2CCCc3cc(C(=O)NO)ccc3C2)cc1` [Compound 235, N-hydroxy-2-(4-methoxybenzoyl)-2,3,4,5-tetrahydro-1H-2-benzazepine-7-carboxamide] gave an IC50 of 100 to 500 nM.
The result for `O=C(NO)c1ccc2c(c1)CCCN(C(=O)Cc1cc(C(F)(F)F)cc(C(F)(F)F)c1)C2` [Compound 236, 2-{[3,5-bis(trifluoromethyl)phenyl]acetyl}-N-hydroxy-2,3,4,5-tetrahydro-1H-2-benzazepine-7-carboxamide] reads above 500 nM; that for `CC(C)(C)OC(=O)Nc1ccc(-c2cc(C(=O)N3CCc4cc(C(=O)NO)ccc4C3)no2)cc1` [Compound 237, tert-butyl[4-(3-{[6-[(hydroxyamino)carbonyl]-3,4-dihydroisoquinolin-2(1H)-yl]carbonyl}isoxazol-5-yl)phenyl]carbamate], 50 to 100 nM; that for `CC(C)(C)c1ccc(C(=O)N2CCCc3cc(C(=O)NO)ccc3C2)cc1` [Compound 238, 2-(4-tert-butylbenzoyl)-N-hydroxy-2,3,4,5-tetrahydro-1H-2-benzazepine-7-carboxamide], 100 to 500 nM.
The result for `O=C(NO)c1ccc2c(c1)CCCN(C(=O)c1cc3ccccc3s1)C2` [Compound 239, 2-(1-benzothien-2-ylcarbonyl)-N-hydroxy-2,3,4,5-tetrahydro-1H-2-benzazepine-7-carboxamide] reads below 50 nM.
As to `O=C(NO)c1ccc2c(c1)CCCN(C(=O)c1cc3cc(Cl)ccc3[nH]1)C2` [Compound 240, 2-[(5-chloro-1H-indol-2-yl)carbonyl]-N-hydroxy-2,3,4,5-tetrahydro-1H-2-benzazepine-7-carboxamide], the 50% inhibitory concentration (IC50) is below 50 nM.
Molecule `O=C(NO)c1ccc2c(c1)CCCN(C(=O)c1c(F)cc(F)cc1F)C2` [Compound 241, N-hydroxy-2-(2,4,6-trifluorobenzoyl)-2,3,4,5-tetrahydro-1H-2-benzazepine-7-carboxamide] had a concentration for half-maximal inhibition (IC50) of 100 to 500 nM.
The result for `COc1cccc2cc(C(=O)N3CCCc4cc(C(=O)NO)ccc4C3)oc12` [Compound 242, N-hydroxy-2-[(7-methoxy-1-benzofuran-2-yl)carbonyl]-2,3,4,5-tetrahydro-1H-2-benzazepine-7-carboxamide] reads below 50 nM.
The value for `O=C(NO)c1ccc2c(c1)CCCN(C(=O)c1cnc3ccccc3n1)C2` [Compound 243, N-hydroxy-2-(quinoxalin-2-ylcarbonyl)-2,3,4,5-tetrahydro-1H-2-benzazepine-7-carboxamide] was 100 to 500 nM.
The value for `O=C(NO)c1ccc2c(c1)CCCN(C(=O)c1ccc(-c3ccccc3)cc1)C2` [Compound 244, 2-(biphenyl-4-ylcarbonyl)-N-hydroxy-2,3,4,5-tetrahydro-1H-2-benzazepine-7-carboxamide] was 100 to 500 nM; that for `Cc1cc(C(=O)N2CCCc3cc(C(=O)NO)ccc3C2)no1` [Compound 245, N-hydroxy-2-[(5-methylisoxazol-3-yl)carbonyl]-2,3,4,5-tetrahydro-1H-2-benzazepine-7-carboxamide] was 100 to 500 nM; that for `O=C(NO)c1ccc2c(c1)CCCN(C(=O)C1CCCCCC1)C2` [Compound 246, 2-(cycloheptylcarbonyl)-N-hydroxy-2,3,4,5-tetrahydro-1H-2-benzazepine-7-carboxamide] was 100 to 500 nM.
In turn, `O=C(NO)c1ccc2c(c1)CCCN(C(=O)C1CCCCC1)C2` [Compound 247, 2-(cyclohexylcarbonyl)-N-hydroxy-2,3,4,5-tetrahydro-1H-2-benzazepine-7-carboxamide] registered an IC50 of 100 to 500 nM.
As to `O=C(NO)c1ccc2c(c1)CCN(C(=O)C13CC4CC(CC(O)(C4)C1)C3)C2` [Compound 248, N-hydroxy-2-[(3-hydroxy-1-adamantyl)carbonyl]-1,2,3,4-tetrahydroisoquinoline-6-carboxamide], the half-maximal inhibitory concentration (IC50) was below 50 nM.
In the case of `O=C(NO)c1ccc2c(c1)CCCN(C(=O)c1cc3ccccc3o1)C2` [Compound 250, 2-(1-benzofuran-2-ylcarbonyl)-N-hydroxy-2,3,4,5-tetrahydro-1H-2-benzazepine-7-carboxamide], the concentration for half-maximal inhibition (IC50) was below 50 nM.
The result for `O=C(NO)c1ccc2c(c1)CCCN(C(=O)Cc1csc3ccc(Cl)cc13)C2` [Compound 251, 2-[(5-chloro-1-benzothien-3-yl)acetyl]-N-hydroxy-2,3,4,5-tetrahydro-1H-2-benzazepine-7-carboxamide] reads 100 to 500 nM; that for `O=C(NO)c1ccc2c(c1)CCCN(C(=O)c1ccc3occc3c1)C2` [Compound 252, 2-(1-benzofuran-5-ylcarbonyl)-N-hydroxy-2,3,4,5-tetrahydro-1H-2-benzazepine-7-carboxamide], 100 to 500 nM; that for `Cc1ccc2[nH]c(C(=O)N3CCCc4cc(C(=O)NO)ccc4C3)cc2c1` [Compound 253, N-hydroxy-2-[(5-methyl-1H-indol-2-yl)carbonyl]-2,3,4,5-tetrahydro-1H-2-benzazepine-7-carboxamide], below 50 nM.
`CC(=O)N/C(=C\c1ccccc1)C(=O)N1CCCc2cc(C(=O)NO)ccc2C1` [Compound 254, 2-[(2Z)-2-(acetylamino)-3-phenylprop-2-enoyl]-N-hydroxy-2,3,4,5-tetrahydro-1H-2-benzazepine-7-carboxamide]: the IC50 lay within 100 to 500 nM.
The result for `O=C(NO)c1ccc2c(c1)CCCN(C(=O)c1cnc3ccccc3c1)C2` [Compound 255, N-hydroxy-2-(quinolin-3-ylcarbonyl)-2,3,4,5-tetrahydro-1H-2-benzazepine-7-carboxamide] reads 100 to 500 nM; that for `CC(=O)Nc1cc(NC(C)=O)cc(C(=O)N2CCCc3cc(C(=O)NO)ccc3C2)c1` [Compound 256, 2-[3,5-bis(acetylamino)benzoyl]-N-hydroxy-2,3,4,5-tetrahydro-1H-2-benzazepine-7-carboxamide], 100 to 500 nM.
The result for `O=C(NO)c1ccc2c(c1)CCCN(C(=O)c1cc3cc(Cl)ccc3o1)C2` [Compound 257, 2-[(5-chloro-1-benzofuran-2-yl)carbonyl]-N-hydroxy-2,3,4,5-tetrahydro-1H-2-benzazepine-7-carboxamide] reads 50 to 100 nM; that for `O=C(NO)c1ccc2c(c1)CCCN(C(=O)c1csc3ccccc13)C2` [Compound 258, 2-(1-benzothien-3-ylcarbonyl)-N-hydroxy-2,3,4,5-tetrahydro-1H-2-benzazepine-7-carboxamide], 100 to 500 nM.
The result for `Cc1cc(C)c(C(=O)N2CCCc3cc(C(=O)NO)ccc3C2)c(C)c1` [Compound 259] reads above 500 nM; that for `O=C(NO)c1ccc2c(c1)CCCN(C(=O)c1cccs1)C2` [Compound 260, N-hydroxy-2-(2-thienylcarbonyl)-2,3,4,5-tetrahydro-1H-2-benzazepine-7-carboxamide], 100 to 500 nM.
In turn, `O=C(NO)c1ccc2c(c1)CCCN(C(=O)c1cc(C(F)(F)F)cc(C(F)(F)F)c1)C2` [Compound 261] yielded an IC50 above 500 nM.
